Several values for one entry are separate records, joined by “and”; a condition that tells them apart may be missing. Identical values can stand only once. Marks after values point to notes of the source that are not given here.
Experiments:
[1] = 9-month treatment with DHEA and/or EM-800 in the rat: urinary and serum markers of bone metabolism; assay type: in vivo
Excerpt: It is particularly important to indicate that the combination of DHEA and EM-800 exerted unexpected beneficial effects on important biochemical parameters of bone metabolism. […] Moreover, no effect of DHEA could be detected on daily urinary calcium or phosphorus excretion (Luo et al., 1997). EM-800 decreased the urinary hydroxyproline/creatinine ratio by 48% while, similarly to DHEA, no effect of EM-800 was seen on urinary calcium or phosphorus excretion. EM-800, moreover, had no effect on serum alkaline phosphatase activity, a marker of bone formation while DHEA increased the value of the parameter by about 75% (Luo et al., 1997).

[2] = Uterine, vaginal and body weight in estrone-supplemented OVX nude mice (Example 1); assay type: in vivo; conditions: E1-supplemented
Method: DHEA was dissolved in 50% ethanol 50% propylene glycol. […] Tumors were measured once a week with Vernier calipers.

[3] = tested on: ZR-75-1 human breast cancer xenografts; test: Growth and response of human ZR-75-1 breast tumor xenografts in estrone-supplemented OVX nude mice, DHEA and/or EM-800 for 9.5 months (Example 1); assay type: in vivo; conditions: 9.5 months; for Category of response: Complete (%) / Category of response: Complete (Number) / Category of response: Partial (%) / Category of response: Partial (Number) / Category of response: Progression (%) / Category of response: Progression (Number) / Category of response: Stable (%) / Category of response: Stable (Number) / Average tumor weight at end of experiment: E1-supplemented
[4] = 12-month treatment of ovariectomized rats with DHEA alone or with Flutamide or EM-800: bone histomorphometry, bone markers, serum lipids; assay type: in vivo, rat; conditions: added to DHEA, OVX rats, 12 months
[5] = 12-week oral EM-800 (0.5 mg/kg) in intact rats: serum 17β-estradiol, mammary gland and endometrium histology; assay type: in vivo, rat; conditions: 12 weeks
Method: The lobules (L) consist of a few alveoli. Insert. High magnification showing alveoli. • b) Animal treated with EM-800 (0.5 mg/kg, b w per day) for 12 weeks. […] Insert. High magnification showing atrophied alveolar cells.
The luminal epithelium (LE) is characterized by columnar epithelial cells while the glandular epithelium (GE) is rather cuboidal. The stroma contains several cellular elements and collagen fibers. • b) Animal treated with EM-800 (0.5 mg/kg, b w per day) during 12 weeks. […] The glandular epithelial cells have unstained cytophasm with no sign of activity. The stroma is highly cellular due to reduction in intercellular elements of the stroma.

[6] = parameters: species or system Long-Evans rats; conditions: rat, in vivo
Excerpt: For comparison purposes, values for the blood, plasma, liver (Table 13) and uterus from each of these animals were included.

[7] = tested on: ZR-75-1 human breast cancer xenografts; test: Growth and response of human ZR-75-1 breast tumors in OVX nude mice, 7 antiestrogens for 161 days with or without estrone (Example 8); assay type: in vivo
How it was run: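 ZR-75-1 xenografts were grown in ovariectomized nude mice, with estrone implants removed in the OVX control and antiestrogen-alone groups. Antiestrogens were given as suspensions for 161 days. Tumor area came from two perpendicular diameters, and response was assessed at study end using mice surviving at least 84 days.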

[8] = tested on: ZR-75-1 human breast cancer xenografts; test: Tamoxifen and EM-652.HCl alone or combined on growth of ZR-75-1 xenografts in nude mice (FIG. 7); assay type: in vivo; conditions: ZR-75-1 xenografts in nude mice
[9] = Endometrial epithelium thickness in OVX nude mice after 161 days of antiestrogen (Example 8); assay type: in vivo
Excerpt: The 17 groups included two control groups (OVX and OVX+Estrone), seven groups supplemented with an estrone implant and treated with an antiestrogen and eight other groups that received an antiestrogen alone. The estrone implants were then removed from the animals in the ovariectomized control group (OVX) and in groups that were to receive the antiestrogen alone. […] Tamoxifen was purchased from […]) while toremifene citrate was purchased from Orion (Espoo, Finland). […] The antiestrogen suspensions at the appropriate concentration were prepared each month, stored at 4° C. and used under constant agitation. Powder stock were hermetically stored at 4° C. […] After 161 days of treatment, the remaining animals were anesthetized with isoflurane and killed by exsanguination. […] The uteri were prepared to evaluate endometrial thickness by image analysis performed with Image Pro-Plus (Media Cybernetics, Maryland, USA). […] Hematoxylin- and eosin-stained sections of mice uteri were analyzed. […] Mean epithelial cell height was measured in all animals of each group.

[10] = DHEA 10 mg, EM-800 75 μg, alone or combined
[11] = EM-800 15 μg, or EM-800 15 μg + DHEA 0.3 mg
[12] = EM-800 50 μg, or EM-800 15 μg + DHEA 1.0 mg
[13] = EM-800 100 μg, or EM-800 15 μg + DHEA 3.0 mg
[14] = DHEA 0.3 mg, EM-800 15 μg, or EM-800 15 μg + DHEA 0.3 mg
[15] = DHEA 1.0 mg, EM-800 50 μg, or EM-800 15 μg + DHEA 1.0 mg
[16] = DHEA 3.0 mg, EM-800 100 μg, or EM-800 15 μg + DHEA 3.0 mg
[17] = absence of estrone, 200 μg daily, 161 days
[18] = estrone-supplemented, 50 μg daily, 161 days

In the case of `CC1=C(c2ccc(OC(=O)C(C)(C)C)cc2)[C@H](c2ccc(OCCN3CCCCC3)cc2)Oc2cc(OC(=O)C(C)(C)C)ccc21` [EM-800, (+)-7-pivaloyloxy-3-(4′-pivaloyloxyphenyl)-4-methyl-2-(4″-(2′″-piperidi-noethoxy)phenyl)-2H-benzopyran], the “decrease of urinary hydroxyproline/creatinine ratio (marker of bone resorption)” value [1] is reported as 48%, the “effect on daily urinary calcium or phosphorus excretion” value [1] is reported as “no effect” and the “increase of serum alkaline phosphatase activity (marker of bone formation)” value [1] is reported as “no effect”. The “Serum tALP” value [1, 10] was 114.11 ± 11.26 IU/L, the “Urine HP/Cr” value [1, 10] was 6.81 ± 0.84 μmol/mmol and the Urine calcium [1, 10] was 17.44 ± 4.5 μmol/24 h/100 g. The Urine phosphorus [1, 10] was 102.03 ± 25.13 μmol/24 h/100 g, the UTERINE WEIGHT [2, 11] was 49 ± 3 mg and the VAGINAL WEIGHT [2, 11] was 23 ± 1 mg. It also gave a UTERINE WEIGHT [2, 12] of 36 ± 2 mg, a VAGINAL WEIGHT [2, 12] of 15 ± 1 mg and a UTERINE WEIGHT [2, 13] of 32 ± 1 mg. The VAGINAL WEIGHT [2, 13] was 11 ± 1 mg, the “Inhibition of estrone-stimulated ZR-75-1 tumor size” value ([3]; daily DHEA 0.3 mg or EM-800 15 μg) was 88% and 87.5% and the “Inhibition of estrone-stimulated ZR-75-1 tumor size” value ([3]; daily DHEA 1.0 mg or EM-800 50 μg) was 93% and 93.5%. For the same compound, the “Inhibition of estrone-stimulated ZR-75-1 tumor size” value ([3]; daily DHEA 3.0 mg or EM-800 100 μg) was 94%, the “Category of response: Complete (%)” value [3, 14] was 29.4% and the “Category of response: Complete (Number)” value [3, 14] was 5. The “Category of response: Partial (%)” value [3, 14] was 5.9%, the “Category of response: Partial (Number)” value [3, 14] was 1 and the “Category of response: Progression (%)” value [3, 14] was 35.3%. For the same compound, the “Category of response: Progression (Number)” value [3, 14] was 6, the “Category of response: Stable (%)” value [3, 14] was 29.4% and the “Category of response: Stable (Number)” value [3, 14] was 5. For the same compound, the “Category of response: Complete (%)” value [3, 15] was 25.0%, the “Category of response: Complete (Number)” value [3, 15] was 4 and the “Category of response: Partial (%)” value [3, 15] was 18.8%. The “Category of response: Partial (Number)” value [3, 15] was 3, the “Category of response: Progression (%)” value [3, 15] was 25.0% and the “Category of response: Progression (Number)” value [3, 15] was 4. For the same compound, the “Category of response: Stable (%)” value [3, 15] was 31.2%, the “Category of response: Stable (Number)” value [3, 15] was 5 and the “Category of response: Complete (%)” value [3, 16] was 50.0%. The “Category of response: Complete (Number)” value [3, 16] was 8, the “Category of response: Partial (%)” value [3, 16] was 0 (0) % and the “Category of response: Partial (Number)” value [3, 16] was 0 (0). The “Category of response: Progression (%)” value [3, 16] was 31.2%, the “Category of response: Progression (Number)” value [3, 16] was 5 and the “Category of response: Stable (%)” value [3, 16] was 18.8%. The “Category of response: Stable (Number)” value [3, 16] was 3, the “Average tumor weight at end of experiment” value (from here on “Average tumor weight at end”) ([3]; daily DHEA 0.3 mg, EM-800 15 μg, or EM-800 15 μg + DHEA 0.3 mg) was 0.08 ± 0.03 g and the “Average tumor weight at end” value ([3]; daily DHEA 1.0 mg, EM-800 50 μg, or EM-800 15 μg + DHEA 1.0 mg) was 0.03 ± 0.01 g. For the same compound, the “Average tumor weight at end” value ([3]; daily DHEA 3.0 mg, EM-800 100 μg, or EM-800 15 μg + DHEA 3.0 mg) was 0.04 ± 0.03 g, the “reversal of the stimulatory effect of DHEA on serum alkaline phosphatase” value [4] was “no significant effect” and the “elevation of circulating 17β-estradiol versus intact animals” value ([5]; EM-800 0.5 mg/kg orally daily) was 50%. The “effect on the endometrium (histology)” value ([5]; EM-800 0.5 mg/kg) was “marked atrophy”, the “effect on the mammary gland (histology)” value ([5]; EM-800 0.5 mg/kg) was “marked atrophy” and the “circulating levels of 17β-estradiol” value ([5]; intact rats, EM-800 0.5 mg/kg orally daily) was 143.5 ± 7.8 pg/mL.
In the case of `CC1=C(c2ccc(O)cc2)[C@H](c2ccc(OCCN3CCCCC3)cc2)Oc2cc(O)ccc21` [EM-652], the “accessibility to the CNS” value [6] is reported as “very poor accessibility”.
For `CC/C(=C(\c1ccccc1)c1ccc(OCCN(C)C)cc1)c1ccccc1` [Tamoxifen, (Z)-2-[4-(1,2-diphenyl-1-butenyl)phenoxy]-N,N-dimethylethanamine], the “increase of average tumor size over baseline (agonistic effect)” value [7, 17] was 196%, the “tumors in the progression category, %” value [7, 17] was 62% and the “tumors in the progression category, number of total” value [7, 17] was 16 of 26. The “average tumor size above pretreatment values” ([7]; estrone-stimulated, 50 μg oral daily, 23 weeks) was 87%, the “progressing tumors, % of tumors” value [7, 18] was 65% and the “progressing tumors, number of total” value [7, 18] was 17 of 26. The “stimulatory effect on tumor growth” value [8] was “approximately 100%”, the “inhibition of the stimulatory effect of estrone on epithelial height” value ([9]; 50 μg daily oral, estrone stimulation) was 32% and the “height of uterine epithelial cells, % of the OVX control group value” ([9]; 200 μg daily, absence of estrone) was 155%. For the same compound, the “ENDOMETRIAL EPITHELIUM THICKNESS (μm) ± SEM” value ([9]; OVX + E1, antiestrogen 50 μg daily) was 33.44^b,d ± 0.04 μm and the “ENDOMETRIAL EPITHELIUM THICKNESS (μm) ± SEM” value ([9]; OVX without E1, antiestrogen 200 μg daily) was 28.47^b,d ± 0.05 μm.

From patent publication US11452731B2, “Method of treating and preventing loss of cognition” (ENDORECHERCHE, INC., priority 2009, dated 2022)
